Measured values: patent publication US12398101B2, “Herbicidal 2-azaspiro[3-5]nonane compounds” (SYNGENTA CROP PROTECTION AG, priority 2018, dated 2025)

Assays:
Assay type in all cases: in vivo
Avena fatua (AVEFA) [1] = test: Glasshouse herbicide test, post-emergence application; conditions: 250 g/h, evaluated after 13 days
Procedure: (§1) Seeds of a variety of test species are sown in standard soil in pots (Lolium perenne (LOLPE), Setaria faberi (SETFA), Echinochloa crus-galli (ECHCG), Avena fatua (AVEFA)). After cultivation for one day (pre-emergence) or after 8 days cultivation (post-emergence) under controlled conditions in a glasshouse (at 24/16° C., day/night; 14 hours light; 65% humidity), the plants are sprayed with an aqueous spray solution derived from the formulation of the technical active ingredient in acetone/water (50:50) solution containing 0.5% Tween 20 (polyoxyethelyene sorbitan monolaurate, CAS RN 9005-64-5). Compounds are applied at 250 g/h. The test plants are then grown in a glasshouse under controlled conditions in a glasshouse (at 24/16° C., day/night; 14 hours light; 65% humidity) and watered twice daily. After 13 days for pre and post-emergence, the test is evaluated for the percentage damage caused to the plant. The biological activities are shown in the following table on a five point scale (5=80-100%; 4=60-79%; 3=40-59%; 2=20-39%; 1=0-19%).

Setaria faberi (SETFA) [2] = test: as above; conditions: 250 g/h, evaluated after 13 days
Procedure: as §1

[3] = test system: Echinochloa crus-galli (ECHCG); test: as above; conditions: 250 g/h, evaluated after 13 days
Procedure: as §1

Lolium perenne (LOLPE) [4] = test: as above; conditions: 250 g/h, evaluated after 13 days
Procedure: as §1

Avena fatua (AVEFA) [5] = test: Glasshouse herbicide test, pre-emergence application; conditions: 250 g/h, evaluated after 13 days
Procedure: as §1

Setaria faberi (SETFA) [6] = test: as above; conditions: 250 g/h, evaluated after 13 days
Procedure: as §1

[7] = test system: Echinochloa crus-galli (ECHCG); test: as above; conditions: 250 g/h, evaluated after 13 days
Procedure: as §1

Lolium perenne (LOLPE) [8] = test: as above; conditions: 250 g/h, evaluated after 13 days
Procedure: as §1

[9] = test system: Panicum miliaceum (PANMI); test: Prior art comparison, post-emergence, representative weed; conditions: for PANMI (percentage damage): post-emergence
barley = test: Prior art comparison, post-emergence, crop plants
wheat = test: Prior art comparison, post-emergence, crop plants; conditions: for Wheat (percentage damage): post-emergence

SMILES | percentage damage caused to the plant, five point scale, AVEFA (Avena fatua (AVEFA) [1]) | percentage damage caused to the plant, five point scale, SETFA (Setaria faberi (SETFA) [2]) | percentage damage caused to the plant, five point scale, ECHCG [3] | percentage damage caused to the plant, five point scale, LOLPE (Lolium perenne (LOLPE) [4]) | percentage damage caused to the plant, five point scale, AVEFA (Avena fatua (AVEFA) [5]) | percentage damage caused to the plant, five point scale, SETFA (Setaria faberi (SETFA) [6]) | percentage damage caused to the plant, five point scale, ECHCG [7] | percentage damage caused to the plant, five point scale, LOLPE (Lolium perenne (LOLPE) [8]) | PANMI (percentage damage) ([9]; Rate 60) | PANMI (percentage damage) ([9]; Rate 125) | overall weed control ([9]; summary of Table B3) | Barley (percentage damage) (barley; Rate 60) | Barley (percentage damage) (barley; Rate 125) | Wheat (percentage damage) (wheat; Rate 60) | Wheat (percentage damage) (wheat; Rate 60 + CQC (safener cloquintocet-mexyl at 50 g/ha)) | Wheat (percentage damage) (wheat; Rate 125) | crop safety vis-à-vis prior art compound C1 (wheat; wheat and barley, summary of Table B3)
CC#Cc1cc(C)c(C2C(=O)CC3(CC2=O)CN(C(C)=O)C3)c(C)c1 [Compound 1.001, 2-acetyl-7-(2,6-dimethyl-4-prop-1-ynyl-phenyl)-2-azaspiro[3.5]nonane-6,8-dione] | 5 (5=80-100%) | 5 (5=80-100%) | 5 (5=80-100%) | 5 (5=80-100%) | 5 (5=80-100%) | 5 (5=80-100%) | 2 (2=20-39%) | 5 (5=80-100%) | 100 | 100 | good overall weed control | 0 | 0 | 0 | 0 | 0 | significantly improved crop safety
CC#Cc1cc(C)c(C2C(=O)CC3(CC2=O)CN(C(=O)CC#N)C3)c(OC)c1 [Compound 1.023] | 5 (5=80-100%) | 5 (5=80-100%) | 5 (5=80-100%) | 5 (5=80-100%) | 2 (2=20-39%) | 3 (3=40-59%) | 1 (1=0-19%) | 3 (3=40-59%) |  |  |  |  |  |  |  |  | 
CC#Cc1cc(C)c(C2C(=O)CC3(CC2=O)CN(C(=O)C(F)F)C3)c(OC)c1 [Compound 1.024] | 5 (5=80-100%) | 5 (5=80-100%) | 5 (5=80-100%) | 5 (5=80-100%) | 5 (5=80-100%) | 5 (5=80-100%) | 5 (5=80-100%) | 5 (5=80-100%) |  |  |  |  |  |  |  |  | 
CC#Cc1cc(Cl)c(C2C(=O)CC3(CC2=O)CN(C(=O)C(F)F)C3)c(OC)c1 [Compound 1.193] | 5 (5=80-100%) | 5 (5=80-100%) | 5 (5=80-100%) | 5 (5=80-100%) | 5 (5=80-100%) | 5 (5=80-100%) | 5 (5=80-100%) | 5 (5=80-100%) |  |  |  |  |  |  |  |  | 
CC#Cc1cc(Cl)c(C2C(=O)CC3(CC2=O)CN(C(C)=O)C3)c(OC)c1 [Compound 1.195] | 5 (5=80-100%) | 5 (5=80-100%) | 5 (5=80-100%) | 5 (5=80-100%) | 5 (5=80-100%) | 5 (5=80-100%) | 5 (5=80-100%) | 5 (5=80-100%) |  |  |  |  |  |  |  |  | 
CC#Cc1cc(Cl)c(C2C(=O)CC3(CC2=O)CN(C(=O)C2CC2)C3)c(OC)c1 [Compound 1.196] | 5 (5=80-100%) | 5 (5=80-100%) | 5 (5=80-100%) | 5 (5=80-100%) | 5 (5=80-100%) | 5 (5=80-100%) | 5 (5=80-100%) | 5 (5=80-100%) |  |  |  |  |  |  |  |  | 
CC#Cc1cc(Cl)c(C2C(=O)CC3(CC2=O)CN(C(=O)c2ccccc2)C3)c(OC)c1 [Compound 1.201] | 5 (5=80-100%) | 5 (5=80-100%) | 5 (5=80-100%) | 5 (5=80-100%) | 5 (5=80-100%) | 5 (5=80-100%) | 5 (5=80-100%) | 5 (5=80-100%) |  |  |  |  |  |  |  |  | 
CC#Cc1cc(Cl)c(C2C(=O)CC3(CC2=O)CN(C(=O)C(C)(C)C)C3)c(OC)c1 [Compound 1.202] | 5 (5=80-100%) | 5 (5=80-100%) | 5 (5=80-100%) | 5 (5=80-100%) | 5 (5=80-100%) | 5 (5=80-100%) | 5 (5=80-100%) | 5 (5=80-100%) |  |  |  |  |  |  |  |  | 
COc1cc(-c2ccc(F)cc2)cc(C)c1C1C(=O)CC2(CC1=O)CN(C(C)=O)C2 [Compound 1.203] | 5 (5=80-100%) | 5 (5=80-100%) | 5 (5=80-100%) | 5 (5=80-100%) | 5 (5=80-100%) | 5 (5=80-100%) | 5 (5=80-100%) | 4 (4=60-79%) |  |  |  |  |  |  |  |  | 
CC#Cc1cc(C)c(C2=C(OC(=O)OC)CC3(CC2=O)CN(C(C)=O)C3)c(C)c1 [Compound 2.001, 2-acetyl-7-(2,6-dimethyl-4-prop-1-ynyl-phenyl)-6-oxo-2-azaspiro[3.5]non-7-en-8-yl] methyl carbonate] | 5 (5=80-100%) | 5 (5=80-100%) | 5 (5=80-100%) | 5 (5=80-100%) | 5 (5=80-100%) | 5 (5=80-100%) | 5 (5=80-100%) | 5 (5=80-100%) |  |  |  |  |  |  |  |  | 
